Assays:
Settings in all cases: 10 mM Tris-HCl, pH 7.4
[1] = system: DNA aptamer or structured DNA GGGACGACGGGGGGAGTTTGTTTGTGTGGGAGGGTCCAGTCGTCCC
[2] = system: DNA aptamer or structured DNA GGGACGACTACGTAGCCCTGTCTCAGCGAGTTCGCGGAGTCGTCCC
[3] = system: DNA aptamer or structured DNA GGGACGACAGAATGGCAGCATTGGTGAGTTGTTTGCCTGTCGTCCC
[4] = system: DNA aptamer or structured DNA GGGACGACGAGTGCGGGGAGTGTGTTTCTGTGGGGGTCGTCGTCCC
[5] = system: DNA aptamer or structured DNA GGGACGACGCCGGCTTCTAGGGGGGGTGTGGGTGGCGAGTCGTCCC
[6] = system: DNA aptamer or structured DNA GGGACGACATGGGATGGAGCTATGCGAGCATGTGGTGTGTCGTCCC
[7] = system: DNA aptamer or structured DNA GGGACGACAAGTCAGGCCTGTCTCAGCGAGTTCGACATGTCGTCCC
[8] = system: DNA aptamer or structured DNA GGGACGACTAGCGGTGTTGGTCGGAGTGGTGGAATCTAGTCGTCCC
[9] = system: DNA aptamer or structured DNA GGGACGACATGGGATACCAGAGTCCTGGGATGTGGTGTGTCGTCCC
[10] = system: DNA aptamer or structured DNA GGGACGACTGGCGCCGGATTCCCTAAGGTACACGGACTGTCGTCCC
[11] = system: DNA aptamer or structured DNA GGGACGACATCGTAGGGGCACACGCTTAACGGGCTGATGTCGTCCC
[12] = system: DNA aptamer or structured DNA GGGACGACGGAGGTTTAGGGTTTAGGTAGTGGGTTGAAGTCGTCCC
[13] = system: DNA aptamer or structured DNA GGGACGACGCAGCAGTCCATCTCTCAGCGAGTTCGTCAGTCGTCCC
[14] = system: DNA aptamer or structured DNA GGGACGACGGATTGCGCTTGCTAACGCCGTGTAGAGTCGTCGTCCC
[15] = system: DNA aptamer or structured DNA GGGACGACCAGAATGGAAGCATTGGTTGCCGCAGGGTGCCGCAGTCGTCCC
[16] = system: DNA aptamer or structured DNA TTCAAATCTAGCGCAGGTAGGGGTGTAGGCGTGGGGGTAAGTCTAGATTTGAA
[17] = system: DNA aptamer or structured DNA GGGACGACGGGGGGAGTAATGTTTGTGTGGGGGAGCCGGTCGTCCC
[18] = system: DNA aptamer or structured DNA GGGACGACCGTTGTTCGAGCCTTGAGTACCATTGGTAGGTCGTCCC
[19] = system: DNA aptamer or structured DNA GGGACGACAAGTACCAAGGGTAGCTCTGCGTTGTTCGAGGTCGTCCC
[20] = system: DNA aptamer or structured DNA GGGACGACGCGTAGGTCTCCTAGCTGTGCGTCGTTCAAGTCGTCCC
[21] = system: DNA aptamer or structured DNA GGGACGACGCGTAGGTTTCCTAGCTGTGCGTCGTTCAAGTCGTCCC
[22] = system: DNA aptamer or structured DNA CTTACGACCAGGCCTACGGAAGCAGCGTCAGCGGGGGGGTCGTAAG
[23] = system: DNA aptamer or structured DNA GGGACGACGCGTACTTCCAGTAGCCGTGCGTCGTTCAAGTCGTCCC
[24] = system: DNA aptamer or structured DNA GGGACGACGGGGATTCGCGGATTCGGAGAAAAGGGCTCGTACGTCGTCCC
[25] = system: DNA aptamer or structured DNA GGGACGACGGTACCCGCCGGTGCAGGATCTGGGGTGGTGTCGTCCC
[26] = system: DNA aptamer or structured DNA GGGACGACCAGGATTCGGTTCGGAAAGTCCAGTGCCTCGTTGGTCGTCCC
[27] = system: DNA aptamer or structured DNA GGGACGACTAGTGCCTTCGCGTTGTTCGGGAATCCGGTTCCGTCGTCCC
[28] = system: DNA aptamer or structured DNA GGGACGACAGGGATTCGGTTCTCGATAAGTAGTGCCTCGTACGTCGTCCC
[29] = system: DNA aptamer or structured DNA GGGACGACTACAGGTCGTGCGTTGCTCGAGTTGGTGAGTGTGTCGTCCC
[30] = system: DNA aptamer or structured DNA GGGACGACTAATGGGAGCATTGGTCCACGCAGTGTGCAGTCGTCCC
[31] = system: DNA aptamer or structured DNA TTCAAATCTGCGGCGACTAATTCTTAGTGGTGGTTGCAATGCGCTGGGATGAGTCTAGATTTGAA
[32] = system: DNA aptamer or structured DNA GGGACGACGGCACGAGGTTAATCGTTGGTTGCACTGCGCTGGGAGGCAGTCGTCCC
[33] = system: DNA aptamer or structured DNA CTTACGACGGTGGGGGGTTGGTAGGGGAGGAGCGCATCGTCGTAAG
Wherever binding call is given: call rule not given here.

binding call [14]	binding call [22]	binding call [19]	Compound	binding call [3]	binding call [5]	binding call [8]	binding call [12]	binding call [7]	binding call [10]	binding call [11]	binding call [17]	binding call [24]	binding call [26]	binding call [28]	binding call [23]	also measured
			COc1ccc2c3c1O[C@H]1C(=O)CC[C@@]4(O)[C@@H](C2)N(C)CC[C@]314	no binding	binds	no binding	no binding									Kd [1]: 1750 nM; Kd [2]: 1150 nM; Kd [4]: 990 nM; Kd [6]: 3190 nM; Kd [7]: 450 nM; Kd [9]: 2770 nM; Kd [10]: 3060 nM; Kd [11]: 1420 nM; Kd [13]: 2220 nM; Kd [14]: 2160 nM; binding call [15]: no binding; binding call [16]: no binding; Kd [17]: 1190 nM
no binding	no binding	no binding	CN(C)CCOC(c1ccccc1)c1ccccc1		no binding	no binding	binds			no binding		no binding	no binding	no binding		binding call [25]: binds; binding call [27]: no binding; binding call [21]: no binding; binding call [16]: no binding
	no binding	no binding	C=C[C@H]1CN2CC[C@@H]1C[C@H]2[C@H](O)c1ccnc2ccc(OC)cc12			binds				no binding	no binding	no binding	binds		no binding	binding call [29]: no binding; binding call [25]: binds; binding call [30]: no binding; binding call [27]: no binding; binding call [6]: binds; binding call [31]: binds; binding call [32]: no binding
no binding		no binding	Cn1c(=O)c2c(ncn2C)n(C)c1=O					binds		no binding	no binding					binding call [1]: binds; binding call [18]: no binding; binding call [31]: no binding; binding call [33]: no binding; binding call [13]: no binding

Compound	binding call [14]	binding call [22]	binding call [19]	binding call [3]	binding call [5]	binding call [8]	binding call [12]	binding call [7]	binding call [10]	binding call [11]	binding call [17]	binding call [24]	binding call [26]	binding call [28]	binding call [23]	also measured
CN1C(=O)CN=C(c2ccccc2)c2cc(Cl)ccc21	no binding					no binding		no binding	no binding	no binding	no binding					binding call [4]: no binding; binding call [9]: no binding
CC(=O)Oc1ccc2c3c1O[C@H]1[C@@H](OC(C)=O)C=C[C@H]4[C@@H](C2)N(C)CC[C@@]341		no binding		no binding	no binding	no binding	no binding									Kd [18]: 2280 nM; Kd [19]: 2180 nM; Kd [20]: 4350 nM; Kd [21]: 4570 nM; Kd [23]: 4080 nM
O=C1CC[C@@]2(O)[C@H]3Cc4ccc(O)c5c4[C@@]2(CCN3CC2CC2)[C@H]1O5			no binding	no binding				no binding	no binding	no binding		no binding	no binding	no binding	no binding	binding call [2]: no binding; binding call [20]: no binding; binding call [30]: no binding
C=CCN1CC[C@]23c4c5ccc(O)c4O[C@H]2C(=O)CC[C@@]3(O)[C@H]1C5			no binding	no binding					no binding	binds	no binding	no binding	no binding	no binding	no binding	binding call [18]: no binding; binding call [2]: no binding; binding call [20]: no binding; binding call [6]: no binding; binding call [21]: no binding; binding call [9]: no binding

Source: the AptaBench aptamer set (doi:10.1093/nar/gkaf219)
